Results as given in article PMC7151626, “Antioxidant and α-amylase Inhibitory Activities and Phytocompounds of Clausena indica Fruits” (Medicines, 2020).

Molecular target: T1, porcine pancreatic α-amylase (PPA) (Sus scrofa, UniProt P00690)
T1 construct: gene AMY2; native pancreatic enzyme
T1 sequence (P00690 16-511): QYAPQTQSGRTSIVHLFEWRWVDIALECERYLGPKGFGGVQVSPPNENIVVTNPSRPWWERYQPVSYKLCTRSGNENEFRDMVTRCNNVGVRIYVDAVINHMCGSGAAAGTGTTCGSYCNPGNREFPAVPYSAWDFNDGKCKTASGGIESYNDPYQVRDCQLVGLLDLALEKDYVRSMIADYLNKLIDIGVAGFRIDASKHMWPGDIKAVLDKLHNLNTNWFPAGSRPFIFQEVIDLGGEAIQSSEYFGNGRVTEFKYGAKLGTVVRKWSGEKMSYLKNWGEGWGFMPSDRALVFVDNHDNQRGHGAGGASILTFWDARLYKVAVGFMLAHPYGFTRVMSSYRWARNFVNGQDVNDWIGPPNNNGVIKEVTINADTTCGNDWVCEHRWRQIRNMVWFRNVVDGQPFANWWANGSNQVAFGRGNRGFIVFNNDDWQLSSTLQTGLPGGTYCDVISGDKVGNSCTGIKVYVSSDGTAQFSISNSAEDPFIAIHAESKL
Assay: starch-iodine colorimetric assay, […] nm
Assay type: biochemical
Details: read-out: α-Amylase IC50 (mg/mL) (converted)

CCCCCCCCCCCCCCCC(=O)O [palmitic acid]
IC50: 5.93 mM
